In brackets after ≈: the same amount, converted by molar mass. Structures can show the parent of a compound that is named as a salt. Where two headings read alike, the source gives them in different places.
Key:
[1] = system: passive cutaneous anaphylaxis in rats (PCA), mediator liberation; assay: passive cutaneous anaphylaxis in rats (PCA), inhibition of allergic reaction; assay type: in vivo; details: iv, rat PCA, i.v.
Method: For this purpose, rats are passively sensitized by the intracutaneous injection of various dilutions (1:8 and 1:16) of a standardized IgE-containing hyperimmune serum. After 48 hours, the compound to be tested, dissolved as the sodium salt in a physiological NaCl solution, and ovalbumin as the allergen, combined with a dye to better measure the local allergic reaction, are administered intravenously.
The measurement determines the inhibition of the allergic reaction in the presence of the test compound as compared with the allergic reaction without the inhibiting agent.

carrageenin test = assay: carrageenin test, antiinflammatory effect; assay type: in vivo
From the text: The inflammation-inhibitory effect can be measured by the carrageenin test (Winter, C. A., E. A. Risley and G. W. Nuss, Proc. Soc. Exp. Biol. Med. 111: 544-547 [1962]).

Diplococcus pneumoniae = assay: in vitro series dilution test, antibacterial effect; assay type: cell-based; details: Streptococcus pneumoniae, read-out: Minimum Inhibitory Concentration
From the text: (§1) The antibacterial effect can be measured in vitro in a series dilution test.

[2] = system: Staphylococcus aureus 30-107; assay: as above; assay type: cell-based; details: 30107; Staphylococcus aureus 30-107, in vitro; read-out: Minimum Inhibitory Concentration
From the text: as §1

[3] = system: Staphylococcus aureus 30-109; assay: as above; assay type: cell-based; details: 30109; Staphylococcus aureus 30-109, in vitro; read-out: Minimum Inhibitory Concentration
From the text: as §1

[4] = system: Staphylococcus aureus 30-2; assay: as above; assay type: cell-based; details: 302; Staphylococcus aureus 30-2, in vitro; read-out: Minimum Inhibitory Concentration
From the text: as §1

[5] = system: Staphylococcus aureus 30-3; assay: as above; assay type: cell-based; details: 303; Staphylococcus aureus 30-3, in vitro; read-out: Minimum Inhibitory Concentration
From the text: as §1

[6] = system: Staphylococcus aureus 30-53; assay: as above; assay type: cell-based; details: 3053; Staphylococcus aureus 30-53, in vitro; read-out: Minimum Inhibitory Concentration
From the text: as §1

[7] = system: Staphylococcus aureus 30-64; assay: as above; assay type: cell-based; details: 3064; Staphylococcus aureus 30-64, in vitro; read-out: Minimum Inhibitory Concentration
From the text: as §1

[8] = system: Staphylococcus aureus 30-8; assay: as above; assay type: cell-based; details: 308; Staphylococcus aureus 30-8, in vitro; read-out: Minimum Inhibitory Concentration
From the text: as §1

[9] = system: Diplococcus pneumoniae and a series of strains of Staphylococcus aureus; assay: in vitro series dilution test, antibacterial effect (summary over all bacteria); assay type: cell-based; details: in words
From the text: as §1

mast cells of the lungs = details: upon inhalation; J. Med. Chem. 15: 583 [1972]; cited from earlier work
[10] = IgE serum dilution 1:8, dissolved as the sodium salt, read-out: % Inhibition, IgE 1:8
[11] = IgE serum dilution 1:16, dissolved as the sodium salt, read-out: % Inhibition, IgE 1:16

Compound: Cn1cc(C(=O)O)c(=O)c2ccc(OCC(O)COc3ccc4c(=O)c(C(=O)O)cn(C)c4c3)cc21 [1,3-Bis(3-carboxy-1,4-dihydro-1-methyl-4-oxo-7-quinolyloxy)-2-propanol]
- inhibition at 5 mg/kg [1, 10]: 62%
- inhibition at 5 mg/kg [1, 11]: 69%

Compound: O=C(O)c1cc(=O)c2c(OCC(O)COc3cccc4oc(C(=O)O)cc(=O)c34)cccc2o1 [Cromoglycic Acid, reference compound]
- inhibition at 5 mg/kg [1, 10]: 63%
- inhibition at 5 mg/kg [1, 11]: 67%
- inhibition at 10 mg/kg [1, 10]: 60%
- inhibition at 10 mg/kg [1, 11]: 84%
- antiinflammatory activity (carrageenin test; in words): only an extremely weak efficacy, or even no corresponding efficacy at all
- inhibition at 10 mg/kg (carrageenin test; iv, 10 mg./kg.): 10%
- inhibition at 75 mg/kg (carrageenin test; po, 75 mg./kg.): 0%
- MIC (Diplococcus pneumoniae): > 100 mg/L
- MIC [2]: > 100 mg/L
- MIC [3]: > 100 mg/L
- MIC [4]: > 100 mg/L
- MIC [5]: > 100 mg/L
- MIC [6]: > 100 mg/L
- MIC [7]: > 100 mg/L
- MIC [8]: > 100 mg/L
- antibacterial activity [9]: ineffective against all bacteria investigated

Compound: 1,3-Bis(1-ethoxy-3-carboxy-1,4-dihydro-4-oxo-7-quinolyloxy)-2-propanol
- % Inhibition (carrageenin test; i.v., 10 mg./kg.): 44%
- % Inhibition (carrageenin test; p.o., 75 mg./kg.): 28%

Compound: O=C(O)c1cc(=O)c2c(OCC(O)COc3cccc4oc(C(=O)O)cc(=O)c34)cccc2o1 [sodium salt of cromoglycic acid]
- inhibition of liberation of mediators triggering bronchoconstriction, such as histamine and SRS-A (mast cells of the lungs): inhibit the liberation of mediators triggering bronchoconstriction

Compound: CCCCn1cc(C(=O)O)c(=O)c2ccc(OCC(O)COc3ccc4c(=O)c(C(=O)O)cn(CCCC)c4c3)cc21 [1,3-Bis(1-butyl-3-carboxy-1,4-dihydro-4-oxo-7-quinolyloxy)-2-propanol]
- inhibition at 10 mg/kg [1, 10]: 71%
- inhibition at 10 mg/kg [1, 11]: 85%

Compound: CCn1cc(C(=O)O)c(=O)c2ccc(OCC(O)COc3ccc4c(=O)c(C(=O)O)cn(CC)c4c3)cc21 [1,3-Bis(1-ethyl-3-carboxy-1,4-dihydro-4-oxo-7-quinolyloxy)-2-propanol]
- inhibition at 5 mg/kg [1, 10]: 59%
- inhibition at 5 mg/kg [1, 11]: 69%
- inhibition at 10 mg/kg [1, 10]: 84%
- inhibition at 10 mg/kg [1, 11]: 90%
- MIC (Diplococcus pneumoniae): 50 mg/L (≈ 95.7 µM)
- MIC [2]: 50 mg/L (≈ 95.7 µM)
- MIC [3]: 25 mg/L (≈ 47.8 µM)
- MIC [4]: 25 mg/L (≈ 47.8 µM)
- MIC [5]: 12.5 mg/L (≈ 23.9 µM)
- MIC [6]: 50 mg/L (≈ 95.7 µM)
- MIC [7]: 50 mg/L (≈ 95.7 µM)
- MIC [8]: 12.5 mg/L (≈ 23.9 µM)
